Patent publication US5449676A, “Pyridazines” (priority 1991, dated 1995)
Where two headings read alike, the source gives them in different places.

Tests used:
tracheal rings = test: bronchospasmolytic effect on the chain of tracheal rings from guinea pigs in vitro; assay type: cell-based; settings: for EC50: Cavia porcellus, negative logarithm of EC50 mol/l, 50% of maximum achievable relaxation, read-out: -lg[EC50 ] (converted); for [EC50 ] theophylline/[EC50 ] substance: ratio of EC50 values, theophylline vs substance
Procedure: The bronchospasmolytic effect of the compounds on the chain of tracheal rings from guinea pigs was tested in vitro as follows:
Thus, a complete dose-effect plot for the test substance is obtained over a period of 20 to 30 minutes. The particular relaxation is expressed as a percentage fraction of the maximum relaxation achievable by administration of (-)isoprenaline (10^-6 mol/l).

[1] = test system: acetylcholine-induced bronchospasm; test: protective effect against acetylcholine-induced bronchospasm in conscious guinea pigs; assay type: in vivo; settings: oral, 30 minutes after administration, percentage of protected animals
Procedure: In addition, the bronchospasmolytic effect was tested on the "protective effect against acetylcholine-induced bronchospasm in conscious guinea pigs" model:
Guinea pigs (250-350 g) are exposed in a closed Plexiglass cylinder (volume […] ) to an acetylcholine mist (0.06% in 0.9% sodium chloride solution; Heyer Use 77 ultrasonic atomizer) before administration of the substance and twice at an interval of 20 minutes after administration of the substance. The time from the start of atomization to the onset of marked breathing difficulties (in some cases hypoxic convulsion in the lateral position) is measured and called the latency time. An increase in the latency time after administration of the substance to at least three times the average latency time before administration of the substance is regarded as a protective effect, and the number of protected animals in the group is determined. […]
[…] After 30 minutes, the animals are again exposed to the acetylcholine mist and the latency times are measured. An increase in the latency time to at least three times the length is regarded as a protective effect.

PDE III = molecular target: T1, PDE III (Homo sapiens, UniProt Q14432); test: inhibition of PDE III isolated from human platelets; assay type: biochemical; settings: negative logarithm of IC50, cAMP 0.5 μmol/l; for IC50: read-out: PDE III hum. platelets -lg[IC50 ] (converted)
T1 construct: PDE III isolated from human platelets; from tissue; host or cells: human platelets
T1 sequence (Q14432 whole entry): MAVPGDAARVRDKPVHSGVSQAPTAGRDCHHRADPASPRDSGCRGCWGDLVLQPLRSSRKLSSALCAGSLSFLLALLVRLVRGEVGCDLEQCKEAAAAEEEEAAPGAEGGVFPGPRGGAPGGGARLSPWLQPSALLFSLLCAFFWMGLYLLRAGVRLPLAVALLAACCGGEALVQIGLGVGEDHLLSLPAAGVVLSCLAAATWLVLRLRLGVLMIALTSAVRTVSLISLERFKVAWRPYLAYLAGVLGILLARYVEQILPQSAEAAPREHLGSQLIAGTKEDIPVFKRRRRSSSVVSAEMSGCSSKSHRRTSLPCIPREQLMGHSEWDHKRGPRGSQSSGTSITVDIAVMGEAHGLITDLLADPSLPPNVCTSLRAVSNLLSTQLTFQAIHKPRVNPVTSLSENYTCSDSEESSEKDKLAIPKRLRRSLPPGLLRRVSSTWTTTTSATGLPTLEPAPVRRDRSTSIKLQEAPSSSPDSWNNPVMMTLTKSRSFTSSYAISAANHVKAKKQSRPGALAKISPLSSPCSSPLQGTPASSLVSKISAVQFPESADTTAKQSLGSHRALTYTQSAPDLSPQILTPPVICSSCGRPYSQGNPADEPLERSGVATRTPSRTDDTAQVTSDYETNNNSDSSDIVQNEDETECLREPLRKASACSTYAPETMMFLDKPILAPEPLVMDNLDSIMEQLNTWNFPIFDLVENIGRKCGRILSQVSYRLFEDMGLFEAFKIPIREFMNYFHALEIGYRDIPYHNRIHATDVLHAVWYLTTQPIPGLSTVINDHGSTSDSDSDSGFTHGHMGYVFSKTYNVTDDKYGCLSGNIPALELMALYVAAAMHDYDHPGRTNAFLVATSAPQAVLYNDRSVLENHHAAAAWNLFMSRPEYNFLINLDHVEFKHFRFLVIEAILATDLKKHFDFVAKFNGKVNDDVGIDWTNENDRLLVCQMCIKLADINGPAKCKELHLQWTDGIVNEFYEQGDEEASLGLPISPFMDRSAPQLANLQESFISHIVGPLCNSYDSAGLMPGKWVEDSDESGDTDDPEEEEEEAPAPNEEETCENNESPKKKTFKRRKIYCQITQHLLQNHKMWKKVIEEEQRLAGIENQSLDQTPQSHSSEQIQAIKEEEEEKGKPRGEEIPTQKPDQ
Description: (§1) The specific inhibition of phosphodiesterase IV (PDE IV=high-affinity cAMP-PDE which cannot be inhibited by cGMP, rolipram-sensitive) is regarded as particularly indicative of an expected bronchospasmolytic and/or antiinflammatory effect. The specificity of the inhibition is moreover described by the ratio [IC50 ]PDE-III /[IC50 ]PDE-IV (PDE III=high-affinity cAMP-PDE which can be inhibited by cGMP) [H. Hidaka et al., Adv. Cycl. Nucl. Res. 13, 145 (1984); TiPS 5, 237 (1984); R. Weishaar et al., J. Med. Chem. 28, (1985); S. A. Harrison et al., Molec. Pharmac. 29, 506 (1986); J. Klein-Tebbe et al., Allergologie 12, 12 (1989); C. Schudt et al., Allergologie 12, 12, (1989); C. Schudt et al., Agents and Action 1991 in press; C. D. Nicholson et al., TiPS 12, (1), 19 (1991)].
(§2) For this reason, the PDE inhibition by the compounds according to the invention was determined on a PDE III isolated from human platelets and on PDE IV isolated from human polymorphonuclear neutrophilic cells (PMNs) and from the dog trachea. Phosphodiesterases III and IV are isolated by chromatography as described by Polson et al., Biochem. Pharmacol. 31, 3403-3406 (1982).
(§3) The substances are dissolved and diluted further in DMSO. 2.1 μl samples from a series of solutions diluted up to 100 fold are mixed with 212 μl of reaction mixture. The reaction mixture contains Hepes (100 mmol/l), DTE (5 mmol/l), MgCl2 (5 mmol/l), CaCl2 (10 μmol/l), BSA fraction V 0.5 mg, ml, cAMP 0.5 μmol/l, 2,8-^3 H-cAMP 250,000 cpm/ml (0.3 μCi/ml, S.A. […]), SV (snake venom) 25 μg/212 μl of test mixture.

PDE IV [2] = test: inhibition of PDE IV isolated from dog trachea; assay type: biochemical; settings: for PDE IV dog trachea -lg[IC50 ]: negative logarithm of IC50, cAMP 0.5 μmol/l; for [IC50 ] PDE III/[IC50 ] PDE IV dog tr.: selectivity ratio, PDE III hum. platelets vs PDE IV dog trachea
Description: as §1, §2, §3

[3] = test system: histamine-induced bronchospasm; test: histamine-induced bronchospasm in anesthetized guinea pigs; assay type: in vivo; settings: 20 μmol/kg; for inhibition in vivo at 20 µmol/kg: Cavia porcellus, iv
Procedure: One histamine spasm before administration of the substance was compared with several histamine spasms after administration of the substance. The test substances were administered intravenously (i.v.) and/or intrajejunally (i.j.).

PDE IV [4] = test: inhibition of PDE IV isolated from human polymorphonuclear neutrophilic cells (PMNs); assay type: biochemical; settings: for PDE IV hum. PMNs -lg[IC50 ]: negative logarithm of IC50, cAMP 0.5 μmol/l; for [IC50 ] PDE III/[IC50 ] PDE IV PMNs: selectivity ratio, PDE III hum. platelets vs PDE IV hum. PMNs
Description: as §1, §2, §3

[5] = Cavia porcellus, 0.5 h, 100 μmol/kg
[6] = after 1 h, read-out: % inhibition after 1 h of the histamine-induced decrease in Vmax
[7] = average 0-1 h after administration, read-out: % inhibition (0-1 h) of the histamine-induced decrease in Vmax

Molecule	EC50 (tracheal rings) [µM]	[EC50 ] theophylline/[EC50 ] substance (tracheal rings)	responders at 100 µmol/kg [1, 5] [%]	IC50 (PDE III) [µM]	PDE IV dog trachea -lg[IC50 ] (PDE IV [2])	[IC50 ] PDE III/[IC50 ] PDE IV dog tr. (PDE IV [2])	inhibition in vivo at 20 µmol/kg [3, 6] [%]	inhibition in vivo at 20 µmol/kg [3, 7] [%]	responders at 4 µmol/kg ([1]; Cavia porcellus, 0.5 h, 4 μmol/kg) [%]	PDE IV hum. PMNs -lg[IC50 ] (PDE IV [4])	[IC50 ] PDE III/[IC50 ] PDE IV PMNs (PDE IV [4])	responders at 30 µmol/kg ([1]; Cavia porcellus, 0.5 h, 30 μmol/kg) [%]	responders at 2 µmol/kg ([1]; Cavia porcellus, 0.5 h, 2 μmol/kg) [%]	PDE III hum. platelets -lg[IC50 ] (PDE III)	% inhibition after 1 h of the histamine-induced decrease in Vmax ([3]; i.v., after 1 h) [%]	% inhibition (0-1 h) of the histamine-induced decrease in Vmax ([3]; i.v., average 0-1 h after administration) [%]	% protective effect ([1]; 30 μmol/kg) [%]	% protective effect ([1]; 100 μmol/kg) [%]	% protective effect ([1]; 300 μmol/kg) [%]
CCOc1ccc(-c2ccc(N)nn2)cc1OC(F)F [compound 12]	4.47	30.2	50	316	4.42	9.6	–	–	–	–	–	–	–	–	–	–	–	–	–
COc1ccc(-c2ccc(N)nn2)cc1OCC1CCC1 [compound 13]	–	–	65	224	4.88	17.0	–	–	–	–	–	–	–	–	–	–	–	–	–
CCOc1cc(-c2ccc(N)[n+]([O-])n2)ccc1OC(F)F [compound 19]	0.151	893	–	63.1	5.82	41.7	81	71	50	6.58	240	–	–	–	–	–	–	–	–
COc1ccc(-c2ccc(N)nn2)cc1OCC(C)C [Serial No. 2, 3-amino-6-[4-methoxy-3-(2-methylpropoxy)phenyl]pyridazine]	–	–	80	209	< 5.0	< 20.9	–	–	–	–	–	50	–	–	–	–	–	–	–
COc1cc(-c2ccc(N)[n+]([O-])n2)ccc1OC(F)F [compound 20]	0.447	302	–	14.8	5.08	1.8	48	40	–	5.89	11.5	–	50	–	–	–	–	–	–
COc1ccc(-c2ccc(N)nn2)cc1OC(C)C [Serial No. 3, 3-amino-6-[4-methoxy-3-(1-methylethoxy)phenyl]pyridazine]	–	–	–	–	5.30	43.7	–	–	–	–	–	–	–	3.66	–	–	–	–	–
CCOc1ccc(-c2ccc(N)nn2)cc1OCC(C)C [compound 9]	9.77	13.8	65	126	5.68	60.2	20	16	–	–	–	–	–	–	–	–	–	–	–
COc1cc(-c2ccc(N)nn2)ccc1OC(F)F [compound 11]	4.9	27.6	80	195	5.09	22.9	26	30	–	–	–	–	–	–	–	–	–	–	–
CCOc1cc(-c2ccc(N)nn2)ccc1OC(F)F [compound 10]	8.32	16.2	50	224	5.37	52.5	44	38	–	–	–	–	–	–	–	–	–	–	–
3-amino-6-(3-cyclopentyloxy-4methoxyphenyl)pyridazine [Serial No. 6]	–	–	–	–	6.48	> 304	–	–	–	6.18	> 151	–	–	< 4.0	20	34	50	70	80
